What follows are molecules tested against T1, IRAK4 (Homo sapiens, UniProt Q9NWZ3) (assay: ALE THP1 HTRF (Advanced Lipoxidation End Product THP1 Homogeneous Time Resolved Fluorescence)). Details: THP1 cells.
T1 construct: endogenous in cells; host or cells: THP-1 cells
T1 sequence (Q9NWZ3 1-460): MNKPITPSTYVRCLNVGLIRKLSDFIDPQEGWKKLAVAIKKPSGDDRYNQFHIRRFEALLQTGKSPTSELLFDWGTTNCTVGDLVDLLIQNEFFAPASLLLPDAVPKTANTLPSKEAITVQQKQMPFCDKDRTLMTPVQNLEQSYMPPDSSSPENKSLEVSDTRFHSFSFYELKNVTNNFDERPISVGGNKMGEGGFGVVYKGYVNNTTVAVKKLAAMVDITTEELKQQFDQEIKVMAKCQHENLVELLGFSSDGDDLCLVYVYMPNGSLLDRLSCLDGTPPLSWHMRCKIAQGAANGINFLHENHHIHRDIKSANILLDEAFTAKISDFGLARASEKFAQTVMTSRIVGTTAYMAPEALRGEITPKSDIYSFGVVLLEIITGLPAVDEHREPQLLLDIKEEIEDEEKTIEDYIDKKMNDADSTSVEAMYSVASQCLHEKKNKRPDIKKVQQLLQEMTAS
Assay type: cell-based
Procedure, shortened: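 HTRF read-out of IRAK4 protein: anti-IRAK4 d2 and cryptate antibody pair added to BCA-normalized lysates, overnight dark room-temperature incubation. Lysis ran 45 min with shaking at room temperature; buffer, cryptate-only and negative controls included.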

Row | Structure (SMILES) | ALE THP1 HTRF YMIN [%] | EC50 [µM]
1 | CC(Nc1cc(-n2ncc3cc(C#N)cnc32)ncc1C(=O)NC1CCC(CCN2CCN(c3ccc(C4CCC(=O)NC4=O)cc3)CC2)CC1)C(F)(F)F (stereo not shown) [P-77] | 11.3 | 0.028
2 | C[C@@H](CO)Nc1cc(-n2ncc3cc(C#N)cnc32)ncc1C(=O)NC1CCC(CCN2CCN(c3ccc(C4CCC(=O)NC4=O)cc3)CC2)CC1 (stereo partly shown) [P-78] | 7.6 | 0.009
3 | COc1cc(N2CCN(CCC3CCC(NC(=O)c4cnc(-n5ncc6cc(C#N)cnc65)cc4NC4CC4)CC3)CC2)ccc1C1CCC(=O)NC1=O (stereo not shown) [P-79] | 12.2 | 0.043
4 | COc1cc(C2CCC(=O)NC2=O)ccc1N1CCN(CCC2CCC(NC(=O)c3cnc(-n4ncc5cc(C#N)cnc54)cc3NC3CC3)CC2)CC1 (stereo not shown) [P-80] | 7.3 | 0.026
5 | CC(C)(C[C@H]1CC[C@H](NC(=O)c2cnc(-n3ncc4cc(C#N)cnc43)cc2NC2CCCC2)CC1)N1CCN(c2ccc(C3CCC(=O)NC3=O)cc2)CC1 (stereo partly shown) [P-81, 6-(5-cyano-1H-pyrazolo[3,4-b]pyridin-1-yl)-4-(cyclopentylamino)-N-((1r,4r)-4-(2-(4-(4-(2,6-dioxopiperidin-3-yl)phenyl)piperazin-1-yl)-2-methylpropyl)cyclohexyl)nicotinamide] | 10.7 | 0.073
6 | N#Cc1cnc2c(cnn2-c2cc(NC3CCC3)c(C(=O)NC3CCC(CCN4CCN(c5ccc(C6CCC(=O)NC6=O)cc5)CC4)CC3)cn2)c1 (stereo not shown) [P-82] | 8.6 | 0.23
7 | CC(C)(C)Nc1cc(-n2ncc3cc(C#N)cnc32)ncc1C(=O)NC1CCC(CCN2CCN(c3ccc(C4CCC(=O)NC4=O)cc3)CC2)CC1 (stereo not shown) [P-83] | 8.1 | 0.047
8 | N#Cc1cnc2c(cnn2-c2cc(NC3CC3)c(C(=O)NC3CCC(CCN4CCN(c5ccc(C6CCC(=O)NC6=O)c(Cl)c5)CC4)CC3)cn2)c1 (stereo not shown) [P-84] | 9.7 | 0.035
9 | N#Cc1cnc2c(cnn2-c2cc(NC3CC3)c(C(=O)NC3CCC(CCN4CCN(c5ccc(C6CCC(=O)NC6=O)nc5)CC4)CC3)cn2)c1 (stereo not shown) [P-85] | 11.7 | 0.117
10 | CNc1cc(-n2ncc3cc(C#N)cnc32)ncc1C(=O)NC1CCC(CCN2CCN(c3ccc(C4CCC(=O)NC4=O)cc3)CC2)CC1 (stereo not shown) [P-86] | 11.8 | 0.09
11 | N#Cc1cnc2c(cnn2-c2cc(NC3CCCC3)c(-n3cc([C@H]4CC[C@H](CCN5CCN(c6ccc(C7CCC(=O)NC7=O)cc6)CC5)CC4)nn3)cn2)c1 (stereo partly shown) [P-87, 1-[4-(cyclopentylamino)-5-[4-[4-[2-[4-[4-(2,6-dioxo-3-piperidyl)phenyl]piperazin-1-yl]ethyl]cyclohexyl]triazol-1-yl]-2-pyridyl]pyrazolo[3,4-b]pyridine-5-carbonitrile] | 10.5 | 0.026
12 | N#Cc1cnc2c(cnn2-c2cc(NC3CC3)c(C(=O)N[C@H]3CC[C@H](OCC4CCN(c5ccc(C6CCC(=O)NC6=O)cc5)CC4)CC3)cn2)c1 (stereo partly shown) [P-88] | 64.5 | 0.049
13 | N#CCNc1cc(-n2ncc3cc(C#N)cnc32)ncc1C(=O)NC1CCC(CCN2CCN(c3ccc(C4CCC(=O)NC4=O)cc3)CC2)CC1 (stereo not shown) [P-89] | 10.3 | 0.023
14 | N#Cc1cnc2c(cnn2-c2cc(NC3CC3)c(C(=O)N[C@H]3CC[C@H](CCN4CCC5(CC4)CN(c4cccc(C6CCC(=O)NC6=O)c4)C5)CC3)cn2)c1 (stereo partly shown) [P-90] | 11.6 | 0.028
15 | C[C@H](C#N)Nc1cc(-n2ncc3cc(C#N)cnc32)ncc1C(=O)N[C@H]1CC[C@H](CCN2CCN(c3ccc(C4CCC(=O)NC4=O)cc3)CC2)CC1 (stereo partly drawn) [P-91, 6-(5-Cyano-1H-pyrazolo[3,4-b]pyridin-1-yl)-4-(((R)-1-cyanoethyl)amino)-N-((1r,4r)-4-(2-(4-(4-(2,6-dioxopiperidin-3-yl)phenyl)piperazin-1-yl)ethyl)cyclohexyl)nicotinamide] | 7.0 | 0.005
16 | N#Cc1cnc2c(cnn2-c2cc(NC34CC(C3)C4)c(C(=O)NC3CCC(CCN4CCN(c5ccc(C6CCC(=O)NC6=O)cc5)CC4)CC3)cn2)c1 (stereo not shown) [P-92] | 11.3 | 0.038
17 | N#Cc1cnc2c(-c3cc(NC4CC4)c(C(=O)NC4CCC(CCN5CCN(c6ccc(C7CCC(=O)NC7=O)cc6)CC5)CC4)cn3)cnn2c1 (stereo not shown) [P-93] | 13.0 | 0.023
18 | N#Cc1cnc2c(cnn2-c2cc(NC3CC3)c(C(=O)NC3CCC(CCN4CCN(c5ccc([C@H]6CCC(=O)NC6=O)cc5)CC4)CC3)cn2)c1 (stereo partly shown) [P-95] | 9.9 | 0.015
19 | N#Cc1cnc2c(cnn2-c2cc(NC3CC3)c(C(=O)NC3CCC(CCN4CCN(c5ccc([C@@H]6CCC(=O)NC6=O)cc5)CC4)CC3)cn2)c1 (stereo partly shown) [P-96] | 8.5 | 0.004
20 | N#Cc1cnc2c(cnn2-c2cc(NC3CC(F)(F)C3)c(C(=O)NC3CCC(CCN4CCN(c5ccc(C6CCC(=O)NC6=O)cc5)CC4)CC3)cn2)c1 (stereo not shown) [P-97] | 15.1 | 0.088
21 | N#Cc1cnc2c(cnn2-c2cc(NC3CC3)c(C(=O)NC3CCC(CCN4CCN(c5ccc(C6CCC(=O)NC6=O)cn5)CC4)CC3)cn2)c1 (stereo not shown) [P-98] | 10.5 | 0.017
22 | N#Cc1cnc2c(cnn2-c2cc(NCCF)c(C(=O)NC3CCC(CCN4CCN(c5ccc(C6CCC(=O)NC6=O)cc5)CC4)CC3)cn2)c1 (stereo not shown) [P-99] | 10.7 | 0.022
23 | N#Cc1cc2ccn(-c3cc(NC4CC4)c(C(=O)NC4CCC(CCN5CCN(c6ccc(C7CCC(=O)NC7=O)cc6)CC5)CC4)cn3)c2nc1F (stereo not shown) [P-100] | 28.3 | 1.1
24 | N#Cc1cnc2c(c1)c(F)cn2-c1cc(NC2CC2)c(C(=O)NC2CCC(CCN3CCN(c4ccc(C5CCC(=O)NC5=O)cc4)CC3)CC2)cn1 (stereo not shown) [P-101] | 24.6 | 0.092
25 | N#Cc1cnc2c(cnn2-c2cc(NC3CC3)c(C(=O)NC3CCC(NCC4CCN(c5ccc(C6CCC(=O)NC6=O)cc5)CC4)CC3)cn2)c1 (stereo not shown) [P-102] | 14.2 | 0.032
26 | CN(CC1CCN(c2ccc(C3CCC(=O)NC3=O)cc2)CC1)[C@H]1CC[C@H](NC(=O)c2cnc(-n3ncc4cc(C#N)cnc43)cc2NC2CC2)CC1 (stereo partly shown) [P-103, 6-(5-cyanopyrazolo[3,4-b]pyridin-1-yl)-4-(cyclopropylamino)-N-[4-[[1-[4-(2,6-dioxo-3-piperidyl)phenyl]-4-piperidyl]methyl-methyl-amino]cyclohexyl]pyridine-3-carboxamide] | 16.2 | 0.029
27 | N#Cc1cnc2c(cnn2-c2cc(NC3CC3)c(C(=O)N[C@H]3CC[C@H](C(F)(F)CN4CCN(c5ccc(C6CCC(=O)NC6=O)cc5)CC4)CC3)cn2)c1 (stereo partly shown) [P-104, 6-(5-cyanopyrazolo[3,4-b]pyridin-1-yl)-4-(cyclopropylamino)-N-[4-[2-[4-[4-(2,6-dioxo-3-piperidyl)phenyl]piperazin-1-yl]-1,1-difluoro-ethyl]cyclohexyl]pyridine-3-carboxamide] | 16.0 | 0.047
28 | N#Cc1cnc2c(cnn2-c2cc(NCC3CC3)c(C(=O)N[C@H]3CC[C@H](CCN4CCN(c5ccc(C6CCC(=O)NC6=O)cc5)CC4)CC3)cn2)c1 (stereo partly shown) [P-105] | 11.5 | 0.076
29 | N#Cc1cnc2c(cnn2-c2cc(NC[C@H]3CCCO3)c(C(=O)N[C@H]3CC[C@H](CCN4CCN(c5ccc(C6CCC(=O)NC6=O)cc5)CC4)CC3)cn2)c1 (stereo partly shown) [P-106] | 17.5 | 0.246

From patent publication US20240109881A1, “Heteroaryl Compounds as Ligand Directed Degraders of IRAK4” (Bristol-Myers Squibb Company, priority 2022, published 2024)
